Converted amounts (≈) assume the structure as drawn.

For the data set the following is noted: buffer; pH 7.4; 200.0 µM.
In general, solubility (kinetic) refers to solubility judged after dilution from a stock solution rather than from solid. The compound `O=C(Cc1ccc(Br)cc1)NCCc1ccc(F)cc1` gave a solubility (kinetic) of 14.9 µg/mL (≈ 44.3 µM).
The compound `CN(C(=O)C1CCC1C(=O)O)c1nc(-c2ccc(Cl)s2)cs1` (configuration not stated) gave a kinetic solubility of 42.6 µg/mL (≈ 119 µM).
Under `Cc1cc(C)cc(C(N)=Nc2cccc(C#N)c2)c1` stands > 37.4 µg/mL; under `CN(C(=O)CSC(=O)c1ccccc1)c1ccccc1`, 40.6 µg/mL (≈ 142 µM); under `C[C@]12CS(=O)(=O)C[C@H]1SC(=S)N2c1ccccc1`, > 44.9 µg/mL.
Then `Cc1ccccc1OCC(=O)N1CCCCCCC1`, with > 39.2 µg/mL.
For the compound `Cc1ccccc1CNC(=O)c1ccc2ccccc2n1`, the kinetic solubility was found to be 9.2 µg/mL (≈ 33.3 µM).
On to `Clc1ccc(-c2cnc3n2CCCCC3)cc1`, for which the solubility (kinetic) is > 37 µg/mL.
`NC(=O)COC(=O)c1ccc2c(c1)S(=O)(=O)c1ccccc1C2=O` registered a solubility (kinetic) of 7.5 µg/mL (≈ 21.7 µM).
Under `C=CCN1CCN(C(=O)CCc2ccccc2)CC1` stands 35.6 µg/mL (≈ 138 µM); under `COC(=O)c1ccc(NC(=O)CN2C(=O)NC3(CCC(C)CC3)C2=O)cc1` (configuration not stated), 10.1 µg/mL (≈ 27 µM); under `CCCCNC(=O)NCCN1CCOCC1`, 31.9 µg/mL (≈ 139 µM).
Then `O=C(COC(=O)COc1ccccc1[N+](=O)[O-])NCc1ccc2c(c1)OCO2`, with > 58.2 µg/mL; and `CC(=O)Nc1c(C(N)=O)oc2ccc(Cl)cc12`, with > 37.9 µg/mL.
Take `Nc1ccc(Sc2ccccc2)nc1`: the kinetic solubility was > 30.3 µg/mL.
With `COC(=O)c1cc(OC)c(OC)cc1N1C(=O)CC(C)(C)CC1=O`, the kinetic solubility is > 50.3 µg/mL.
Compound `Cc1ccc(N(C)S(=O)(=O)c2cccc(C(=O)N3CCN(Cc4ccccc4)CC3)c2)cc1` had a kinetic solubility of 23 µg/mL (≈ 49.6 µM).
In turn, `OC(CN1CCN(c2cccc(Cl)c2)CC1)c1ccc(F)cc1` (configuration not stated) yielded a kinetic solubility of 12.2 µg/mL (≈ 36.4 µM).
On to `O=C(CN1CCCCCC1)Nc1cc(C(F)(F)F)ccc1Cl`, for which the solubility (kinetic) is < 0.4 µg/mL.
For `CN(Cc1ccccc1)C(=S)Nc1cccnc1`, the kinetic solubility was > 38.6 µg/mL.
In turn, `CCn1c(=O)c2ccccc2n(Cc2cccc(C)c2)c1=O` had a kinetic solubility of 19.9 µg/mL (≈ 67.6 µM).
Under `CSc1ncccc1C(=O)OCC(=O)Nc1nc(C)c(Cl)cc1Cl` stands 10 µg/mL (≈ 25.9 µM); under `CCOC(=O)c1csc(NC(=O)CN2CCOCC2)n1`, > 44.9 µg/mL; under `Cc1ccc(COc2ccc(C)nc2[N+](=O)[O-])cc1`, 1.2 µg/mL (≈ 4.65 µM).
In the case of `CC(C)(C)S(=O)(=O)c1cnc(N2CCCCC2)nc1N`, the solubility (kinetic) is > 44.8 µg/mL.
On to `Cc1ccc(NC(=O)C2CCCN2C(=O)OC(C)(C)C)cc1C` (configuration not stated), for which the kinetic solubility is > 47.8 µg/mL.
As for `COC(=O)CSc1nc2ccc(C)cc2cc1C#N`, the kinetic solubility worked out at 1.9 µg/mL (≈ 6.98 µM).
Then `COc1ccccc1-c1nc2ccccc2c(=O)n1O`, with > 40.2 µg/mL.
For the compound `CCCS(=O)(=O)N1CCCC(C(=O)c2ccccc2OC)C1` (configuration not stated), the kinetic solubility is > 48.8 µg/mL.
As to `CC(C)(C)N(Cc1ccccc1)C(=O)c1ccncc1`, the kinetic solubility was > 40.3 µg/mL.
The compound `O=C(COC(=O)COc1ccccc1)NCCC1=CCCCC1` showed a solubility (kinetic) of 38.5 µg/mL (≈ 121 µM).
In the case of `CC1(/[N+]([O-])=C\c2ccccc2F)CCCCC1=O` (configuration not stated), the kinetic solubility is > 37.4 µg/mL.
`CCOc1ccccc1/C=C(\C#N)C(=O)NC1CC1`: the solubility (kinetic) came out at 31.3 µg/mL (≈ 122 µM).
Under `CCN(C(=O)COC(=O)c1cc2c(s1)CCCC2)c1c(N)n(Cc2ccccc2)c(=O)[nH]c1=O` stands 3.3 µg/mL (≈ 6.84 µM); under `O=C(CCCOc1ccccc1)NNC(=O)c1ccncc1`, > 44.9 µg/mL; under `O=c1[nH]c(O)c(C=NC2CCCCC2)c(=O)[nH]1`, > 35.6 µg/mL.
Then `COc1ccccc1NC(=O)COc1ccc(C(=O)NCC2CCCO2)cc1OC` (configuration not stated), with 51.5 µg/mL (≈ 124 µM); and `CC(=O)c1ccc(-c2ccc(C(=O)NCC(c3ccco3)N(C)C)o2)cc1` (configuration not stated), with > 55 µg/mL; and `N/C(=N\OC(=O)c1ccc2c(c1)OCO2)c1ccncc1`, with > 42.8 µg/mL.
Compound `O=C(COC(=O)c1ccccc1O)NCc1ccc2c(c1)OCO2` yielded a solubility (kinetic) of 5.7 µg/mL (≈ 17.3 µM).
`CN1CCN(/C=C(\C#N)S(=O)(=O)c2ccc(Cl)cc2)CC1`: the solubility (kinetic) was found to be 44.1 µg/mL (≈ 135 µM).
The compound `Nc1c(NC=O)c(=O)n(Cc2ccccc2)c(=O)n1Cc1ccccc1` displayed a kinetic solubility of 52.1 µg/mL (≈ 149 µM).
Take `O=C(O)CC(CC(=O)N1CCN(C(=O)c2ccco2)CC1)c1ccccc1` (configuration not stated): the kinetic solubility was > 55.6 µg/mL.
In the case of `Cc1ccc(-n2c(C)nc3ccccc3c2=O)c(C)c1`, the solubility (kinetic) was > 39.6 µg/mL.
On to `O=C(NC(=S)N1CCCCCC1)c1ccccc1`, for which the solubility (kinetic) is > 39.4 µg/mL.
Then `Cc1nc(-c2ccc3c(c2)CCC(=O)N3)cs1`, with 31.7 µg/mL (≈ 130 µM); and `O=CN1c2ccccc2CSc2ccccc21`, with 32.9 µg/mL (≈ 136 µM).
Regarding `COc1ccc(C(=O)Nc2ccc(-c3n[nH]c(=S)o3)cc2)cc1`, the solubility (kinetic) is > 49.1 µg/mL.
Take `Cc1ccc(C(=O)N2CCC(C(=O)NCc3ccco3)CC2)cc1`: the solubility (kinetic) was > 49 µg/mL.
`CN1CC(=O)Nc2ccc(Br)cc2C1=O`: the kinetic solubility was > 40.4 µg/mL.
`COc1cc(NC(=S)N2CCCC2)cc(OC)c1` yielded a kinetic solubility of 34.8 µg/mL (≈ 131 µM).
Then `CC1(C(=O)NCC2CCCO2)Oc2cccnc2NC1=O` (configuration not stated), with > 43.7 µg/mL.

Values taken from PubChem BioAssay AID1996.
